Test results: paper PMC11790914, “Chemogenomics for steroid hormone receptors (NR3)” (Communications Chemistry, 2025)
Where “and” joins values, the source holds several entries; their conditions need not be identical. Equal values may be shown once.

Assays:
[1] = test system: HEK293T cells; assay: Cytotoxicity: necrosis induction (red fluorescent dye for permeable plasma membranes); type: cell-based; conditions: 1 µM, 24 h, necrotic cell count normalized to 0.1% DMSO, single replicates;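 further: compounds applied in DMEM high glucose with 0.1% FCS and 0.1% DMSO, necrotic HEK293T cells counted by red staining of cells whose plasma membranes had become permeable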
[2] = test system: Gal4-VP16; type: cell-based; conditions: 1 µM; vs. DMSO ctrl; single replicates n=1-3
[3] = target: T1, ABL1 (Homo sapiens, UniProt P00519); assay: Liability panel screening by DSF: ABL1; type: binding; conditions: DSF, 20 µM, n=2; read-out: Mean ΔTM ABL1
T1 construct: made in house
T1 sequence (P00519 whole entry, species assumed): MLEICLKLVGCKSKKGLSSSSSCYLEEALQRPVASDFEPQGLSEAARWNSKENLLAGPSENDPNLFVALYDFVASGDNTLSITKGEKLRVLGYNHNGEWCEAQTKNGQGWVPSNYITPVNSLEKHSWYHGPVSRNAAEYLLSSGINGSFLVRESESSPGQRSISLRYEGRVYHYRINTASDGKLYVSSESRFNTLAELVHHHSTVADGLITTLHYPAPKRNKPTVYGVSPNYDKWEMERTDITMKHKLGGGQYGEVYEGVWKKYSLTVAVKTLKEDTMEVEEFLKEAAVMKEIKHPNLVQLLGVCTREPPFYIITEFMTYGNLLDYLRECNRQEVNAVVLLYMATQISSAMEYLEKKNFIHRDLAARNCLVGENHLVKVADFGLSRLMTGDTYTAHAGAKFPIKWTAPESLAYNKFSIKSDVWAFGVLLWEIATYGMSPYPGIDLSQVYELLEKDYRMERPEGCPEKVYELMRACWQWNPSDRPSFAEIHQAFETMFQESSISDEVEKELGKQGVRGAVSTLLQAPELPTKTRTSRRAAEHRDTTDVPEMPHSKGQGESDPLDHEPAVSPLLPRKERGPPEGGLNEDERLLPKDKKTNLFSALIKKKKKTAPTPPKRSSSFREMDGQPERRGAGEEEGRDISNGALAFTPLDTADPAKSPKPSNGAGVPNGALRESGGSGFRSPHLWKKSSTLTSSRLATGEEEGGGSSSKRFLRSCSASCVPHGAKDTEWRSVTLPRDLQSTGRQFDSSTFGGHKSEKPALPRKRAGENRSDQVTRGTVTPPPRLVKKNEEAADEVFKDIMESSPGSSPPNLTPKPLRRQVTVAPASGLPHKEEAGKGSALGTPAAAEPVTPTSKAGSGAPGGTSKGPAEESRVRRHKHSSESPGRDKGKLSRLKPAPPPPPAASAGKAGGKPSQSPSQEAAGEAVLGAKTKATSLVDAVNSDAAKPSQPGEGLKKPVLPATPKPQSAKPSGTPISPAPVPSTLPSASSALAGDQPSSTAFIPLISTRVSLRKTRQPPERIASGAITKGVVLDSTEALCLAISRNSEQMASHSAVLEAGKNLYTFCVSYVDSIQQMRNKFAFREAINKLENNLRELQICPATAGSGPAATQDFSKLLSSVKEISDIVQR
In short: (§1)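 ∆Tm in K was taken from Boltzmann-fitted unfolding inflection points, run in duplicate with a temperature ramp of 3 °C per minute up to 85 °C. Each recombinant protein (2 µM) was in HEPES 10 mM pH 7.5 and NaCl 500 mM, with SYPRO Orange dye at 1:1000.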

[4] = target: T2, AURKA (Homo sapiens, UniProt O14965); assay: Liability panel screening by DSF: AURKA; type: binding; conditions: DSF, 20 µM, n=2; read-out: Mean ΔTM AURKA
T2 construct: made in house
T2 sequence (O14965 1-403): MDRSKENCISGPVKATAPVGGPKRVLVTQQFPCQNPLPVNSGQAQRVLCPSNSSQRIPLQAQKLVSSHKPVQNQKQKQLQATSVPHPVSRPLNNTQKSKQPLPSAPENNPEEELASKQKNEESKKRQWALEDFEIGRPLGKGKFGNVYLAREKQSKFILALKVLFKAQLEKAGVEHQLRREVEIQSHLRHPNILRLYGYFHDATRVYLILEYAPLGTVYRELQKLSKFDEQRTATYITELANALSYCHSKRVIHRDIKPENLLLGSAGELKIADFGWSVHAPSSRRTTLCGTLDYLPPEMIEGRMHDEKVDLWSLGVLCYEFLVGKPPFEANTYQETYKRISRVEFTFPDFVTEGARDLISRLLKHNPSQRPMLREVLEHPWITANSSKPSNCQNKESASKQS
In short: as §1

[5] = target: T3, CDK2 (Homo sapiens, UniProt P24941); assay: Liability panel screening by DSF: CDK2; type: binding; conditions: DSF, 20 µM, n=2; read-out: Mean ΔTM CDK2
T3 construct: made in house
In short: as §1

[6] = target: T4, FGFR3 (Homo sapiens, UniProt P22607); assay: Liability panel screening by DSF: FGFR3; type: binding; conditions: DSF, 20 µM, n=2; read-out: Mean ΔTM FGFR3
T4 construct: made in house
T4 sequence (P22607 23-806, species assumed): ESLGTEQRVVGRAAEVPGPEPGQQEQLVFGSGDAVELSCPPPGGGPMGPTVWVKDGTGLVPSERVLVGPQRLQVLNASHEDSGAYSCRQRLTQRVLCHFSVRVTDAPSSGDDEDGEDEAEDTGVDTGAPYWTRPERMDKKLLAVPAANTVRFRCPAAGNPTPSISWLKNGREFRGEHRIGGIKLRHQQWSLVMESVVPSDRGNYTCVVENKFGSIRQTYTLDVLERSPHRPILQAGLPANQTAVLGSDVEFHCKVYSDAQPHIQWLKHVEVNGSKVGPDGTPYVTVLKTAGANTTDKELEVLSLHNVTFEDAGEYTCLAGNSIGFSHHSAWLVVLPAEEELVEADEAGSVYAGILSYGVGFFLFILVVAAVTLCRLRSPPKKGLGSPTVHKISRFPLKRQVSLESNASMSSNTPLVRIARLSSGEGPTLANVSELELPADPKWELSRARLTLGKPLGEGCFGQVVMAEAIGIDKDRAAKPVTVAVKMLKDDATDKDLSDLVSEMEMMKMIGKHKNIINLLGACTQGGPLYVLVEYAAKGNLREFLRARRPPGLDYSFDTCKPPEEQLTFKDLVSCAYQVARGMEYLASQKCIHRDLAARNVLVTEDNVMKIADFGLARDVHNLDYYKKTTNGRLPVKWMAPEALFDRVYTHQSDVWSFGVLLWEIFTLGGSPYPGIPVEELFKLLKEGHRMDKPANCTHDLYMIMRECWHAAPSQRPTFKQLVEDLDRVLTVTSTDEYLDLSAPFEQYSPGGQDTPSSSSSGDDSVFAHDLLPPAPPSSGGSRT
In short: as §1

[7] = target: T5, GSK3B (Homo sapiens, UniProt P49841); assay: Liability panel screening by DSF: GSK3B; type: binding; conditions: DSF, 20 µM, n=2; read-out: Mean ΔTM GSK3B
T5 construct: made in house
T5 sequence (P49841 whole entry, species assumed): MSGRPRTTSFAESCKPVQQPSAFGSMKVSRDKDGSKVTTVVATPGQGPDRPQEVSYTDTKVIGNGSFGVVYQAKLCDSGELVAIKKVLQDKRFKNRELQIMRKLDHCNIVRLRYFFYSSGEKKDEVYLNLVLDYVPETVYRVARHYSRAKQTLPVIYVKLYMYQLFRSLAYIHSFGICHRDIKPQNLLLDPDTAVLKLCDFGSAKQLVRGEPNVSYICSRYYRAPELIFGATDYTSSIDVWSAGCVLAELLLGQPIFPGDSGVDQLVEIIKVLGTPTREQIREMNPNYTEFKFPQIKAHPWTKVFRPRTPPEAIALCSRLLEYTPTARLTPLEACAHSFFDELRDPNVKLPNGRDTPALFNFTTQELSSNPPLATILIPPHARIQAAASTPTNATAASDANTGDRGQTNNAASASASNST

[8] = target: T6, BRD4 (Homo sapiens, UniProt O60885); assay: Liability panel screening by DSF: BRD4; type: binding; conditions: DSF, 20 µM, n=2; read-out: Mean ΔTM BRD4
T6 construct: This panel comprised ten highly ligandable kinases and bromodomains; made in house
In short: as §1

[9] = target: T7, BRPF1 (Homo sapiens, UniProt P55201); assay: Liability panel screening by DSF: BRPF1; type: binding; conditions: DSF, 20 µM, n=2; read-out: Mean ΔTM BRPF1
T7 construct: This panel comprised ten highly ligandable kinases and bromodomains; made in house
T7 sequence (P55201 628-732 limits assumed): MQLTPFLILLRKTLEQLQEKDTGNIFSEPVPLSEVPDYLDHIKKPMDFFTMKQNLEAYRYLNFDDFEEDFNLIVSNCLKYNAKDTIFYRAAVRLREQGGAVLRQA
In short: as §1

[10] = target: T8, CSNK1D (Homo sapiens, UniProt P48730); assay: Liability panel screening by DSF: CSNK1D; type: binding; conditions: DSF, 20 µM, n=2; read-out: Mean ΔTM CSNK1D
T8 construct: made in house
T8 sequence (P48730 whole entry, species assumed): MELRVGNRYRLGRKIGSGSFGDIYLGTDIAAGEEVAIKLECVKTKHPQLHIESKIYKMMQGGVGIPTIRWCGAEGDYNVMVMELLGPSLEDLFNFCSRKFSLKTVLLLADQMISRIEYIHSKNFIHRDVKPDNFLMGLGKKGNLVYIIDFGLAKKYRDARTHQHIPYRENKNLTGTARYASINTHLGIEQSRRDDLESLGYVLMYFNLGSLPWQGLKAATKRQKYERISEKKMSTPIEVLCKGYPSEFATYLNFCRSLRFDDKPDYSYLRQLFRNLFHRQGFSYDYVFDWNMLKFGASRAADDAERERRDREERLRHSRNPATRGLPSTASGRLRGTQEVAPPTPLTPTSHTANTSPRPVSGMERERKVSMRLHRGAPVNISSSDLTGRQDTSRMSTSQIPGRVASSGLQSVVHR
In short: as §1

[11] = target: T9, MAPK1 (Homo sapiens, UniProt P28482); assay: Liability panel screening by DSF: MAPK1; type: binding; conditions: DSF, 20 µM, n=2; read-out: Mean ΔTM MAPK1
T9 construct: made in house
T9 sequence (P28482 whole entry, species assumed): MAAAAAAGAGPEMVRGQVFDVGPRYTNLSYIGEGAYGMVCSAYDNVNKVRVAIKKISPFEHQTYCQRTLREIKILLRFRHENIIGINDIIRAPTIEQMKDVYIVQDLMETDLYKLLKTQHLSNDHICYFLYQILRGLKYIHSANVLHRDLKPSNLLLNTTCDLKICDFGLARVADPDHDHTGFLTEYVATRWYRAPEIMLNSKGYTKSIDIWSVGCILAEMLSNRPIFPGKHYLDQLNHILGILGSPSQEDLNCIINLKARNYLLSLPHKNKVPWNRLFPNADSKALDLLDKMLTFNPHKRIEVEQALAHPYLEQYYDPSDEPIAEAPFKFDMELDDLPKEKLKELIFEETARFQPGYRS
In short: as §1

[12] = target: T10, TRIM24 (Homo sapiens, UniProt O15164); assay: Liability panel screening by DSF: TRIM24; type: binding; conditions: DSF, 20 µM, n=2; read-out: Mean ΔTM TRIM24
T10 construct: This panel comprised ten highly ligandable kinases and bromodomains; made in house
T10 sequence (O15164 899-1004 limits assumed): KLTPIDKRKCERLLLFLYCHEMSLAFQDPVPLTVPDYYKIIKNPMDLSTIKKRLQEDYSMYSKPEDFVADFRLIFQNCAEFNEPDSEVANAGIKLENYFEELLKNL
In short: as §1

[13] = test system: NF-κB activity in HEK293 NF-κB reporter cells; assay: NF-kB activity assay (GFP reporter, ionomycin/PMA); type: cell-based; conditions: for Mean NFκB response: n=3; for NF-κB activity (inflammatory response to ionomycin/PMA): HEK293 NF-κB reporter cells, compounds at recommended concentrations, imaged over 24 h, n = 3
In short: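 HEK293 NF-κB GFP reporter cells given compound in 0.1% DMSO for 4 h, then stimulated with ionomycin 100 ng/mL plus PMA 10 ng/mL. Imaged every 90 min over 24 h; GFP-positive cell count normalized to confluence, three independent biological replicates.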

[14] = test system: ATF6 activity in Hela ATF6 reporter cells; assay: Endoplasmic reticulum stress assay (ATF6 Renilla luciferase reporter, tunicamycin); type: cell-based; conditions: for ATF6 activity (tunicamycin-induced endoplasmic reticulum stress): Hela ATF6 reporter cells, tunicamycin 100 ng/mL, 18 h, compounds at recommended concentrations, n = 5; for activity at 1 µM: Homo sapiens, HeLa, single replicates n=1 to n=5, read-out: ER stress [rel. ATF6 activity]
In short: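 HeLa ATF6 Renilla reporter cells were pretreated 4 h with compounds in 0.1% DMSO, then stimulated with tunicamycin (100 ng/mL) for 18 h. Renilla luminescence (DualGlo) was normalized to 0.1% DMSO control; five independent experiments.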

[15] = test system: NR3C1 (GR); conditions: (lit.); ref Supplementary Table 1; read-out: Potency [nM] EC50, NR3C1 (GR); cited from earlier work
[16] = test system: HEK293T cells; assay: Cytotoxicity: metabolic activity (WST-8 / CCK-8 assay); conditions: 1 µM; HEK293T, 24 h; WST-8; normalized to 0.1% DMSO; single replicates
[17] = test system: HEK293T cells; assay: Cytotoxicity: growth-rate (change in confluence over 24 h); conditions: 1 µM, normalized to 0.1% DMSO control, single replicates (n=1...)
[18] = test system: HEK293T cells; assay: Cytotoxicity: apoptosis induction (caspase-3/7 DEVD fluorogenic DNA dye); conditions: 1 µM; HEK293T, 24 h; apoptotic cell count normalized to 0.1% DMSO; single replicates

| SMILES | Necrosis induction [NI] [1] | VP16 control [fold reporter gene activity] [2] | ΔTm at 20 µM [3] | ΔTm at 20 µM [4] | ΔTm at 20 µM [5] | ΔTm at 20 µM [6] | ΔTm at 20 µM [7] | ΔTm at 20 µM [8] | ΔTm at 20 µM [9] | ΔTm at 20 µM [10] | ΔTm at 20 µM [11] | ΔTm at 20 µM [12] | Mean NFκB response ([13]; 1 µM, 1,5 h) | Mean NFκB response ([13]; 1 µM, 4,5 h) | Mean NFκB response ([13]; 1 µM, 7,5 h) | Mean NFκB response ([13]; 1 µM, 10,5 h) | Mean NFκB response ([13]; 1 µM, 13,5 h) | Mean NFκB response ([13]; 1 µM, 16,6 h) | Mean NFκB response ([13]; 1 µM, 19,5 h) | Mean NFκB response ([13]; 1 µM, 22,5 h) | other results |
| --- | --- | --- | --- | --- | --- | --- | --- | --- | --- | --- | --- | --- | --- | --- | --- | --- | --- | --- | --- | --- | --- |
| COc1cccc([C@@H](Oc2ccc3c(cnn3-c3ccc(F)cc3)c2)[C@H](C)NC(=O)C(F)(F)F)c1 [AZD5423] | 0.69 and 0.73 and 0.65 and 0.80 | 0.65 fold reporter gene activity and 0.98 fold reporter gene activity and 1.07 fold reporter gene activity | -0.84 °C | -3.28 °C | -0.35 °C | -1.62 °C | 0.67 °C | -1.37 °C | -0.79 °C | -5.6 °C | -5.37 °C | -2.31 °C | 2076.25 GFP+-cells/confluence ∙ 1000 | 2908.84 GFP+-cells/confluence ∙ 1000 | 5573.87 GFP+-cells/confluence ∙ 1000 | 12373.33 GFP+-cells/confluence ∙ 1000 | 17196.67 GFP+-cells/confluence ∙ 1000 | 21116.67 GFP+-cells/confluence ∙ 1000 | 24016.67 GFP+-cells/confluence ∙ 1000 | 27100.00 GFP+-cells/confluence ∙ 1000 | Mean NFκB response ([13]; 1 µM, 3 h): 2386.46 GFP+-cells/confluence ∙ 1000; Mean NFκB response ([13]; 1 µM, 6 h): 3758.89 GFP+-cells/confluence ∙ 1000; Mean NFκB response ([13]; 1 µM, 9 h): 9073.33 GFP+-cells/confluence ∙ 1000; Mean NFκB response ([13]; 1 µM, 12 h): 14943.33 GFP+-cells/confluence ∙ 1000; Mean NFκB response ([13]; 1 µM, 15 h): 19223.33 GFP+-cells/confluence ∙ 1000; Mean NFκB response ([13]; 1 µM, 18 h): 22723.33 GFP+-cells/confluence ∙ 1000; Mean NFκB response ([13]; 1 µM, 21 h): 25420.00 GFP+-cells/confluence ∙ 1000; Mean NFκB response ([13]; 1 µM, 24 h): 27183.33 GFP+-cells/confluence ∙ 1000; NF-κB activity (inflammatory response to ionomycin/PMA) [13]: consistently delayed and strongly diminished NF-κB activity; ATF6 activity (tunicamycin-induced endoplasmic reticulum stress) [14]: Consistently weaker ATF6 activity; activity at 1 µM [14]: 84%; EC50 [15]: 0.9 ± 0.2 nM; Metabolic activity [MA] [16]: 1.02 and 1.00 and 0.98 and 1.07 and 1.09 and 0.99 and 1.14 and 1.15; Growth rate [GR] [17]: 0.81 and 2.24 and 0.71 and 1.01 and 0.62 and 1.06 and 0.88 and 0.60 and 1.03 and 2.44; Apoptosis induction [AI] [18]: 0.73 and 0.76 and 0.75 and 0.81 and 1.24 and 2.34 |
| C[C@H]1C[C@H]2[C@@H]3CCC4=CC(=O)C=C[C@]4(C)[C@@]3(Cl)[C@@H](O)C[C@]2(C)[C@@]1(O)C(=O)CO [Beclomethasone] | 0.78 and 0.71 and 0.63 and 0.85 | 1.09 fold reporter gene activity and 0.87 fold reporter gene activity and 0.97 fold reporter gene activity | -0.27 °C | 0.03 °C | -0.29 °C | -0.31 °C | -0.75 °C | -0.57 °C | -0.66 °C | -0.04 °C | 0.36 °C | -1.53 °C | 2314.11 GFP+-cells/confluence ∙ 1000 | 2712.93 GFP+-cells/confluence ∙ 1000 | 3902.54 GFP+-cells/confluence ∙ 1000 | 7904.68 GFP+-cells/confluence ∙ 1000 | 11292.34 GFP+-cells/confluence ∙ 1000 | 14142.72 GFP+-cells/confluence ∙ 1000 | 16024.63 GFP+-cells/confluence ∙ 1000 | 18119.25 GFP+-cells/confluence ∙ 1000 | Mean NFκB response ([13]; 1 µM, 3 h): 2367.97 GFP+-cells/confluence ∙ 1000; Mean NFκB response ([13]; 1 µM, 6 h): 3065.61 GFP+-cells/confluence ∙ 1000; Mean NFκB response ([13]; 1 µM, 9 h): 5609.44 GFP+-cells/confluence ∙ 1000; Mean NFκB response ([13]; 1 µM, 12 h): 9507.58 GFP+-cells/confluence ∙ 1000; Mean NFκB response ([13]; 1 µM, 15 h): 12732.70 GFP+-cells/confluence ∙ 1000; Mean NFκB response ([13]; 1 µM, 18 h): 14975.90 GFP+-cells/confluence ∙ 1000; Mean NFκB response ([13]; 1 µM, 21 h): 16981.30 GFP+-cells/confluence ∙ 1000; Mean NFκB response ([13]; 1 µM, 24 h): 19467.95 GFP+-cells/confluence ∙ 1000; NF-κB activity (inflammatory response to ionomycin/PMA) [13]: consistently delayed and strongly diminished NF-κB activity; ATF6 activity (tunicamycin-induced endoplasmic reticulum stress) [14]: Consistently weaker ATF6 activity; activity at 1 µM [14]: 72%; EC50 [15]: 8 nM; Metabolic activity [MA] [16]: 1.06 and 1.03 (2×) and 0.92 and 0.98 (2×) and 1.01 and 1.10; Growth rate [GR] [17]: 0.71 and 0.34 and 0.95 and 1.09 and 0.91 and 1.08 and 0.81 and 0.17 and 2.51 and -0.30; Apoptosis induction [AI] [18]: 0.38 and 0.63 and 0.67 and 0.78 and 0.69 and 1.03 |
